Read-outs that look alike come from different tables or passages of the source.
Tests used:
in vitro = details: human
Procedure: (§1) As soon as cells reached confluency, cultivation was switched from submerged to airlift and 1% Human Keratinocytes Growth Supplements (HKGS, Gibco, Thermofisher, Vienna, Austria, S0015) was added to the cultivation media on the basolateral compartment. Media were changed every 2–3 days until the day of experiment on day 29. Cells from passage 14–36 were used for experiments. Transepithelial electric resistance (TEER) was measured on day of experiment, as described in detail previously.
(§2) Solutions were diluted to 10 µM (carboxyfluorescein) or 100 µM in DMEM on day of experiments.
(§3) First, TEER was measured in cultivation media on the day of experiment. Afterwards, cells and blanks were washed twice with DMEM on the apical (300 µL) and basolateral (900 µL) compartments and selected cells and blanks were treated with DMEM with or without 100 µM probenecid or verapamil on the apical and basolateral side at 37 °C for 30 min. […] To cells which were pre-incubated with probenecid or verapamil, 100 µM probenecid or verapamil was applied apically as well. DMSO content was adapted for cells with no inhibitors, and DMSO and dd-H2O content was adjusted in the basolateral compartment as well in order to apply the same vehicle concentrations on the apical and basolateral compartment. […] Subsequently, duplicates of apical sample were collected, and samples were frozen at −80 °C until further analysis with High-Performance Liquid Chromatography (HPLC).
(§4) Peaks were quantified using the software Chromeleon Version 7.2.6, and corresponding mili absorbance unit × time [mAU × min] values were used for data analysis.
(§5) Mean values of relative fluorescence unit (RFU) or detected area [mAU × min] were used for calculation. For the first timepoint, the clearance [µL] for the detected area was calculated as shown in the formula below (1a), with Abasot1 as the measured area [mAU × min] at the first time point of the basolateral sample, Vbaso as the basolateral volume [µL] and Astock as the area measured for the applied stock solution. […] Clearance [µL] for carboxyfluorescein was calculated with the same formulas using RFU. (1a) Clearance=Abasot1×Vbaso/AStock (1b) Clearancetn=Abasotn×Vbaso/AStock−∑(Abasotn−1 ×3− Abasot1 ×3)
(§6) Cleared volume [µL] was calculated by plotting the sum of clearance at all time points over time [min]. The resulting slope PS [µL/min] was calculated inversely. For calculation of the PScell, the inverse PS blanks were subtracted, as shown below in Formula (2). (2) 1/PScell=1/PSall−1/PSblank
(§7) The final permeability coefficient is calculated by dividing the inverse PScell by the area of the ThinCerts (0.336 cm^2) and multiplying by a conversion factor to give the permeability coefficient as µm/min.

[1] = tested on: oral mucosa epithelium in vitro model based on human cell line TR146; assay: Transport study across oral mucosa Transwell model, apical to basolateral, 240 min; details: for permeability coefficient: mean ± SEM
Procedure: as §1, §2, §3, §4, §5, §6, §7

[2] = Transport study across blank inserts without cells; details: Ibuprofen study, mean ± SD
Procedure: as §3, §5, §6

TR146 cell layers [3] = assay: TEER after 48 h inflammation study; assay type: cell-based, human; details: 48 h treatment; ibuprofen 100 µM; cytokines 100 ng/mL each
[4] = tested on: JAK1, TRAF2 and RELA mRNA in TR146 cells; assay: qPCR of JAK1, TRAF2 and RELA after inflammation study; assay type: cell-based, human; details: 48 h
Procedure: ® were seeded with cells as described above. […] Prior to treating cells with prepared DMEM solutions, TEER was measured in cultivation media DMEM supplemented with 1% Penicillin/Streptomycin and 10% Fetal Calf Serum. Subsequently, cell layers and blanks were washed with DMEM (without supplements) twice on the apical and basolateral compartment, followed by TEER measurements in DMEM. Media of cells were replaced with previously prepared DMEM solutions. Control media was applied on the blanks. After 48 h treatment at 37 °C, 5% CO2 and 95% humidity TEER was measured. […] Media were immediately collected and measured for the RFU content using the EnSpire as described above. Afterwards, media were stored at -20 °C until further usage. […] For qPCR, samples were analysed as triplicates using the LightCycler480 II (Roche) with the program described in Lin et al. with primers for 18SrRNA (5'-3' forward: [NT], 5'-3' reverse: [NT], Janus Kinase 1 transcript variant a (JAK1tva) (5'-3' forward: [NT], 5'-3' reverse: [NT], JAK1tvb (5'-3' forward: [NT], 5'-3' reverse: [NT], JAK1tvc (5'-3' forward: [NT], 5'-3' reverse: [NT] Receptor Associated Factor 2 (TRAF2) tvb (5'-3' forward: [NT], 5'-3' reverse: […]2tvc (5'-3' forward: [NT], 5'-3' reverse: [NT] and nuclear factor κB (NF-κB) RelA (forward 5'-3': [NT], reverse 5'-3': […]

TR146 cell layers [5] = tested on: TR146 cell layers
[6] = after oral administration of 200 mg ref 52, 53; cited from earlier work
[7] = CXlogD at pH 7.4 ref https://ebi.ac.uk (02.04.2024); cited from earlier work
[8] = Ibuprofen study, Probenecid, mean ± SD
[9] = Ibuprofen study, Verapamil, mean ± SD
[10] = Ibuprofen study, w/o Inhibitor, mean ± SD

CC(C)Cc1ccc(C(C)C(=O)O)cc1 (stereo not shown) [ibuprofen]
Papp A→B at 240 min (in vitro; PC (permeability of cell)): 13.1 ×10⁻⁶ cm/s | Papp A→B at 240 min (in vitro; PE (permeability of cell + blank)): 5.45 ×10⁻⁶ cm/s | PS all (cell + blank) [1, 8]: 0.12 ± 0.03 µL/min | PS cell [1, 8]: 0.26 ± 0.11 µL/min | PS all (cell + blank) [1, 9]: 0.11 ± 0.01 µL/min | PS cell [1, 9]: 0.24 ± 0.04 µL/min | PE (permeability of cell + blank) [1, 10]: 2.94 ± 0.3 µm/min | PS all (cell + blank) [1, 10]: 0.1 ± 0.01 µL/min | PS cell [1, 10]: 0.19 ± 0.05 µL/min | Permeability coefficient without inflammation and inhibitor ([1]; Table S3, mean ± SD): 5.77 ± 1.48 µm/min | PE (permeability of cell + blank) ([1]; human, 240 min): 3.47 ± 0.76 µm/min | increase of permeability coefficient with probenecid compared to no inhibitor ([1]; human, 240 min, 100 µM): 1.36 fold | increase of permeability coefficient with verapamil compared to no inhibitor ([1]; human, 240 min, 100 µM): 1.23 fold | cumulated concentration of NSAID in the basolateral compartment ([1]; human, 4 h, 100 µM): 0.067 ± 0.0078 nmol/mm^2 | permeability coefficient ([1]; with 100 µM probenecid): 7.87 ± 1.32 µm/min | permeability coefficient ([1]; with 100 µM verapamil): 7.13 ± 0.51 µm/min | permeability coefficient ([1]; without inhibitor, 100 µM apical (CF 10 µM)): 5.77 ± 0.60 µm/min | PS blank ([2]; Probenecid): 0.22 ± 0.02 µL/min | PS blank ([2]; Verapamil): 0.21 ± 0.02 µL/min | PS blank ([2]; w/o Inhibitor): 0.21 ± 0.03 µL/min | TEER values after 48 h (TR146 cell layers [3]): 69.65 ± 9.10 Ω × cm^2 | RELA mRNA expression ([4]; 100 µM ibuprofen with inflammatory cytokines, p < 0.05): inhibit the increase in RELA | JAK1 and TRAF2 mRNA expression ([4]; cytokines 100 ng/mL each, ibuprofen 100 µM added during inflammation): did not block the upregulation | regulation of permeability with or without probenecid (TR146 cell layers [5]; cells treated with cytokines): no distinct regulation | higher permeability by addition of probenecid (TR146 cell layers [5]; cells treated with ibuprofen previously): 52.64% | higher permeability by addition of probenecid (TR146 cell layers [5]; control group): 42.46% | plasma concentration [6]: 116 to 142.5 µM | XlogD [7]: 1.34

From PMC11054638, “Transport of Non-Steroidal Anti-Inflammatory Drugs across an Oral Mucosa Epithelium In Vitro Model” (Pharmaceutics, 2024)
